Measurements: PMC3855799 (PLoS ONE, 2013)
Several values for one entry are separate records, joined by “and”; a condition that tells them apart may be missing. Equal values may be shown once.

Target: hNav1.7 alpha subunit (Homo sapiens, UniProt Q15858)
Experiment: Electrophysiology using Sophion QPatch: inhibition of hNav1.7 currents
Assay type: cell-based
Conditions: QPatch 16X whole cell voltage clamp, hNav1.7 alpha HEK 293; holding -80 mV, -120mV for 100ms, step to 0mV; peak inward current; cumulative doses 100pM to 10µM, 10 minutes per dose; extracellular buffer pH 7.4 + 0.1% BSA; n = 9-11 (given for HwTx-IV(acid)); spread type not stated; read-out: IC50 on Nav1.7
Protocol: Electrophysiology using Sophion QPatch^TM
hNav1.7 alpha HEK 293 cell line (NM_002977.2) was obtained from Millipore and cells were cultured in a 50/50 mix of DMEM and Hams F-12 growth media supplemented with 10% FBS. Cells were passaged by Detachin (Genlantis) treatment (5 minutes), seeded 48-72 hours prior to experiments and used between passage 5 and 10. Cells were harvested at 70% confluency and resuspended by trituration in 8ml of Ex-cell ACF CHO serum free media (Sigma) + 20mM HEPES giving a cell density of 2-3x10^6cells/ml.
Solutions for electrophysiology: Extracellular solution contained (in mM) NaCl (145), KCl (2), CaCl2 (2), MgCl2 (1), HEPES (10), pH 7.4 with NaOH, osmolarity adjusted to 300 mOsm with sucrose. Intracellular solution contained (in mM), CsF (140), NaCl (10), EGTA (1), HEPES (10), pH 7.2 with CsOH, osmolarity adjusted to 325 mOsm with sucrose.
Serial dilutions were made in extracellular buffer + 0.1% BSA. Cumulative dose response curves were constructed with doses of 1e-10 to 1e-5M (100pM to 10µM). Each dose was applied for 10 minutes with 3x5µl compound additions spaced 2 seconds apart (Note that complete solution exchange is achieved with volumes of ~2µl).
Nav1.7 currents were measured using the automated electrophysiology platform Qpatch 16X (Sophion) in single hole configuration. […] To measure Nav1.7 currents, membrane potential was held at -80 mV then stepped to -120mV for 100ms to remove fast inactivation, followed by a step to 0mV for 10ms to activate Nav1.7 then returned to -120mV for 100ms. This voltage protocol was repeated at a rate of 0.2Hz with a the membrane potential held at -80mV between sweeps. Data were sampled at 10kHz and filtered using a 4 pole Bessel filter at 3kHz. P/N leak subtraction was utilized with a leak sweep of -10%. Series resistance was compensated 75% as standard. Liquid junction potentials were not corrected.
Peak inward current at 0mV was normalised to cell capacitance (pA/pF). […]

hNav1.7 alpha subunit, sequence (Q15858 1-1977 isoform Q15858-3): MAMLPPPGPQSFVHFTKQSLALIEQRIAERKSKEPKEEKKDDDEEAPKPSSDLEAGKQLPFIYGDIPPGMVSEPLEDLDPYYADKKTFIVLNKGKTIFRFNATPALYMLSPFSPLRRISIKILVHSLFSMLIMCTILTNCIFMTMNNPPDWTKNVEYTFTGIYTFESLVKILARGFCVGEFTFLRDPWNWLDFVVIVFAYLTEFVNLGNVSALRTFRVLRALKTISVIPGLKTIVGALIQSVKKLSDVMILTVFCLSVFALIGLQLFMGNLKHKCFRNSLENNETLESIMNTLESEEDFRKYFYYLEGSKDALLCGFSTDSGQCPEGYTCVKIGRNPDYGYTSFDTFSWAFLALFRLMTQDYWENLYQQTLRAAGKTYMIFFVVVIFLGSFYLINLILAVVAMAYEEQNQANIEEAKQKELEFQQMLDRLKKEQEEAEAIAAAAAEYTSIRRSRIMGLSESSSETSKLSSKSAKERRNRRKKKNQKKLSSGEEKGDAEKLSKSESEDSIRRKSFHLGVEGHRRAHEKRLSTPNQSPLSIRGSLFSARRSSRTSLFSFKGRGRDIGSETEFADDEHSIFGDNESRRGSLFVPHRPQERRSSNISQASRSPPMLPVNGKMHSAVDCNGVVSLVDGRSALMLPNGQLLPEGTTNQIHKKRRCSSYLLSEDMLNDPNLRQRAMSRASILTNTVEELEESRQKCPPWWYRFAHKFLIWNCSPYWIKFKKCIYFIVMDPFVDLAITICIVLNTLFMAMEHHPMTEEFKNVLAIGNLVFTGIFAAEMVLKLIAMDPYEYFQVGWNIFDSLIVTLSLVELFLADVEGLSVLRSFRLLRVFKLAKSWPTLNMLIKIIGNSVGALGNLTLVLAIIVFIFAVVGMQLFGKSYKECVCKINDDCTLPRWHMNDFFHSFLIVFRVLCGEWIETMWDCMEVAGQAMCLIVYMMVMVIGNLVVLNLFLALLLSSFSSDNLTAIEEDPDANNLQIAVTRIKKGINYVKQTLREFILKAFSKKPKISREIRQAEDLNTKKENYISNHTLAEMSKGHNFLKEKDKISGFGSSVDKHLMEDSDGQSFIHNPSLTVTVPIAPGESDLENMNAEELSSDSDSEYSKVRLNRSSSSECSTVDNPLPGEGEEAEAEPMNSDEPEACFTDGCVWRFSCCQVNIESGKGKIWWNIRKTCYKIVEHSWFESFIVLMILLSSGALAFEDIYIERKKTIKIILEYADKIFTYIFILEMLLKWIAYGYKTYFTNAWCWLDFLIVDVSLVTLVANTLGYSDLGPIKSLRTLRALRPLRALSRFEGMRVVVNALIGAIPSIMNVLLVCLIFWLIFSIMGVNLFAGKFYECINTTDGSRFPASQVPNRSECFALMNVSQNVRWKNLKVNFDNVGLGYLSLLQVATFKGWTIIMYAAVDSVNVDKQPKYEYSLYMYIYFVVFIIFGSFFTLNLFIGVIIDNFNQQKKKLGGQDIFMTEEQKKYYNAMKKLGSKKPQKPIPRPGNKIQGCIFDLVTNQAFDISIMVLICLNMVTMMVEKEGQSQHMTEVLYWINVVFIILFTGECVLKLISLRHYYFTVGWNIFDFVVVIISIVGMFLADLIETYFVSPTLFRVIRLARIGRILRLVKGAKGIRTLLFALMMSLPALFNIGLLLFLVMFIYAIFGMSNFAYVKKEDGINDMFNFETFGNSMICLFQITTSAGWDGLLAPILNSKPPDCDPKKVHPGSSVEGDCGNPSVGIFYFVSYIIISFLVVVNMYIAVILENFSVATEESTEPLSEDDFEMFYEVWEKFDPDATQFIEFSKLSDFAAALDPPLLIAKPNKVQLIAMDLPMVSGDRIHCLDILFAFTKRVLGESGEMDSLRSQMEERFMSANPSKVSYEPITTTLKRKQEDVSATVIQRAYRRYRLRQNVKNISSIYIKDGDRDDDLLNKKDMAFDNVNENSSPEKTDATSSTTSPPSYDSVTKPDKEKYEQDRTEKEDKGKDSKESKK

SMILES	IC50
CC[C@H](C)[C@H](NC(=O)[C@H](CCC(N)=O)NC(=O)[C@H](Cc1ccc(O)cc1)NC(=O)[C@H](CCCCN)NC(=O)[C@@H]1CSSC[C@@H]2NC(=O)[C@H](CCC(N)=O)NC(=O)[C@H](CC(=O)O)NC(=O)[C@H](CC(N)=O)NC(=O)[C@H](CO)NC(=O)[C@@H]3CCCN3C(=O)[C@H](CC(N)=O)NC(=O)[C@@H]3CSSC[C@H](NC(=O)[C@H](C(C)C)NC(=O)[C@H](CC(C)C)NC(=O)[C@H](CCCCN)NC(=O)[C@H](CO)NC(=O)[C@H](CO)NC(=O)[C@H](CCCCN)NC(=O)[C@H](CSSC[C@H](NC(=O)[C@@H](N)CCC(=O)O)C(=O)N[C@@H](CC(C)C)C(=O)N[C@@H](CCC(=O)O)C(=O)N[C@@H]([C@@H](C)CC)C(=O)N[C@@H](Cc4ccccc4)C(=O)N[C@@H](CCCCN)C(=O)N[C@@H](C)C(=O)N3)NC2=O)C(=O)N[C@@H](CO)C(=O)N[C@@H](CCCNC(=N)N)C(=O)N[C@@H](CCCCN)C(=O)N[C@@H]([C@@H](C)O)C(=O)N[C@@H](CCCNC(=N)N)C(=O)N[C@@H](Cc2c[nH]c3ccccc23)C(=O)N1)C(=O)O [HwTx-IV(acid)]	463 to 727 nM and 727 nM and 463 nM
CC[C@H](C)[C@H](NC(=O)[C@H](CCC(N)=O)NC(=O)[C@H](Cc1ccc(O)cc1)NC(=O)[C@H](CCCCN)NC(=O)[C@@H]1CSSC[C@@H]2NC(=O)[C@H](CCC(N)=O)NC(=O)[C@H](CC(=O)O)NC(=O)[C@H](CC(N)=O)NC(=O)[C@H](CO)NC(=O)[C@@H]3CCCN3C(=O)[C@H](CC(N)=O)NC(=O)[C@@H]3CSSC[C@H](NC(=O)[C@H](C(C)C)NC(=O)[C@H](CC(C)C)NC(=O)[C@H](CCCCN)NC(=O)[C@H](CO)NC(=O)[C@H](CO)NC(=O)[C@H](CCCCN)NC(=O)[C@H](CSSC[C@H](NC(=O)[C@@H](N)CCC(=O)O)C(=O)N[C@@H](CC(C)C)C(=O)N[C@@H](CCC(=O)O)C(=O)N[C@@H]([C@@H](C)CC)C(=O)N[C@@H](Cc4ccccc4)C(=O)N[C@@H](CCCCN)C(=O)N[C@@H](C)C(=O)N3)NC2=O)C(=O)N[C@@H](CO)C(=O)N[C@@H](CCCNC(=N)N)C(=O)N[C@@H](CCCCN)C(=O)N[C@@H]([C@@H](C)O)C(=O)N[C@@H](CCCNC(=N)N)C(=O)N[C@@H](Cc2c[nH]c3ccccc23)C(=O)N1)C(=O)NCC(=O)O [HwTx-IV^G36(acid)]	190 nM and 195 nM
CC[C@H](C)[C@H](NC(=O)[C@H](CCC(N)=O)NC(=O)[C@H](Cc1ccc(O)cc1)NC(=O)[C@H](CCCCN)NC(=O)[C@@H]1CSSC[C@@H]2NC(=O)[C@H](CCC(N)=O)NC(=O)[C@H](CC(=O)O)NC(=O)[C@H](CC(N)=O)NC(=O)[C@H](CO)NC(=O)[C@@H]3CCCN3C(=O)[C@H](CC(N)=O)NC(=O)[C@@H]3CSSC[C@H](NC(=O)[C@H](C(C)C)NC(=O)[C@H](CC(C)C)NC(=O)[C@H](CCCCN)NC(=O)[C@H](CO)NC(=O)[C@H](CO)NC(=O)[C@H](CCCCN)NC(=O)[C@H](CSSC[C@H](NC(=O)[C@@H](N)CCC(=O)O)C(=O)N[C@@H](CC(C)C)C(=O)N[C@@H](CCC(=O)O)C(=O)N[C@@H]([C@@H](C)CC)C(=O)N[C@@H](Cc4ccccc4)C(=O)N[C@@H](CCCCN)C(=O)N[C@@H](C)C(=O)N3)NC2=O)C(=O)N[C@@H](CO)C(=O)N[C@@H](CCCNC(=N)N)C(=O)N[C@@H](CCCCN)C(=O)N[C@@H]([C@@H](C)O)C(=O)N[C@@H](CCCNC(=N)N)C(=O)N[C@@H](Cc2c[nH]c3ccccc23)C(=O)N1)C(=O)NCC(N)=O [HwTx-IV^G36(amide)]	33 ± 9 nM
